Data on 14 molecules can be found in patent US20040067565A1, “Selective functionalization of hydrocarbons with isolated oxygenases and mediator based regeneration” (priority 2002, published 2004).

In test [1] the target is T1, monooxygenase component of styrene monooxygenase (StyA) (Pseudomonas sp, UniProt O50214). The test can be described thus: [Cp*Rh(bpy)(H2O)]2+ driven, StyA-catalyzed epoxidation / sulfoxidation. It counts as biochemical. To be noted: substrate 2 mM, reaction time 15 min, 37 °C, 0.2 mM [Cp*Rh(bpy)(H2O)]2+, 1.47 μM StyA; for Epoxides concentration: 20 μM FAD, Positive = no standard substances available yet. Here is the method: In a typical experimental setup 1 ml total volume was placed in an Eppendorf cup in a Thermomixer. The temperature was set to 37° C. and the reaction mixture was shaken thoroughly to ensure O2 intake.
T1 sequence (O50214 whole entry): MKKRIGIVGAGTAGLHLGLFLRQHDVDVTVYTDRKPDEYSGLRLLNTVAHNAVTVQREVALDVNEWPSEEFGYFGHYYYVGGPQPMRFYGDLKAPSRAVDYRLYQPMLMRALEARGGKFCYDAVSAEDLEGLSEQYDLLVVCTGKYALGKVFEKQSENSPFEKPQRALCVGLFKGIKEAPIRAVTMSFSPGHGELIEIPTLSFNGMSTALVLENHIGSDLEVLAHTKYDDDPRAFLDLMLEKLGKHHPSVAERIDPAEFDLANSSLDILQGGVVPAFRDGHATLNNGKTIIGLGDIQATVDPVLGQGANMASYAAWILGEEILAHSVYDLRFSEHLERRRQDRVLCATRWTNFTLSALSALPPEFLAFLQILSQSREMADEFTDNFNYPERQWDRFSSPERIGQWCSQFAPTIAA
Product formation was followed by reversed phase HPLC. The HPLC system (Merck) consisted of a D-7000 controller, L-7200 autosampler, L-7400 UV detector, L-7100 liquid chromatography pump and was fitted with a CC250/4 Nucleosil 100-5 C18 HD column. Samples were eluted under isocratic conditions using 60% acetonitrile and 40% water at a flow rate of 1 ml×min^−1. The elution pattern was monitored at 210 nm.
0.2 mM [Cp*Rh(bpy)(H2O)]^2+, 0.05 mM FAD, 0.005 mM FMN, 2 mM styrene, 280 U catalase, and 1.16 μM StyA in 50 mM potassium phosphate buffer with 150 mM sodium formate were incubated at 37° C. and agitation at 1500 rpm. At intervals, reactions were stopped by addition of one equivalent volume of cold acetonitrile. After centrifugation (15 min at 4° C. and 23000×g the upper phase was analyzed by reverse phase HPLC. Concentrations were corrected according to the phase ratio after centrifugation. Results from this experiment are given in FIG. 10 and Table 3.
0.2 mM [Cp*Rh(bpy)(H2O)]^2+, 0.02 mM FAD, 2 mM substrate, 200 U catalase, and 1.47 μM StyA in 50 mM potassium phosphate buffer with 150 mM sodium formate were incubated at 37° C. and agitation at 1500 rpm.
Styrene oxide was analyzed using a CC200/4 Nucleodex α-PM (Machery-Nagel). As eluent 60% methanol and 40% 6.2 mM TEAA in water was used at a flow rate of 0.7 ml×min^−1. 1,2-Dihydronaphthalene oxide, trans-β-Methylstyrene oxide, indene oxide, and methyl phenyl sulfoxide were extracted from the reaction buffer with one aliquot hexane und analyzed unsing normal phase HPLC with a CHIRACEL OB—H column and hexane:isopropanol 95:5 (9:1 for methyl phenyl sulfoxide) at a flow rate of 0.5 ml*min^−1 as mobile phase. As reference either authentical samples of racemic epoxides were used. (Table 4). […]

In test [2] the target is T2, Alkane Hydoxylase from P. Oleovorans (AlkB) (Ectopseudomonas oleovorans, UniProt P12691).
T2 construct: made in house; host or cells: E. coli
T2 sequence (P12691 whole entry): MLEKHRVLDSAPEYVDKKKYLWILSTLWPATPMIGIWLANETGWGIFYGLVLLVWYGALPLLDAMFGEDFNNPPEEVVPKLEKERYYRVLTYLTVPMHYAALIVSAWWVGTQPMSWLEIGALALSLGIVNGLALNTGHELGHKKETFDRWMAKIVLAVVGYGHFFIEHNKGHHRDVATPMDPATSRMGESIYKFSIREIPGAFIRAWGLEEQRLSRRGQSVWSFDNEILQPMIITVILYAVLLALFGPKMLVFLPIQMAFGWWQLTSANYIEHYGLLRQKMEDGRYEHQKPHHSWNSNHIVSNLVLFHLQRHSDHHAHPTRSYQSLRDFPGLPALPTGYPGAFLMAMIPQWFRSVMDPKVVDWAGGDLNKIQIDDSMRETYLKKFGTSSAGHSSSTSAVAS
The test can be described thus: Direct reduction of alkane hydroxylase AlkB by [Cp*Rh(bpy)(H2O)]2+, hydroxylation of 3-ethyl toluene. It counts as biochemical. To be noted: 200 μM [Cp*Rh(bpy)(H2O)]2+, 2 mM 3-ethyl toluene, AlkB crude extract, 30 °C, 20 minutes; average of 4 experiments. Here is the method:
In a typical experiment, 1 ml total volume of 200 μM [Cp*Rh(bpy)(H2O)]^2+ are incubated with 2 mM 3-ethyl toluene and 100 μl of a cell crude extract of recombinant E. coli overexpressing AlkB in a final volume of 1 ml 100 mM potassium phosphate buffer (pH 7.4) supplemented with 150 mM sodium formate and 1 mg/ml bovine serum albumin at 30° C. and vigorous shaking. After 20 minutes the reaction is stopped by addition of […] perchloric acid (10%). After centrifugation the supernatant is extracted with one aliquot of hexane. The organic phase is analyzed by normal phase HPLC (Nucleosil 250/3 100-5 C, mobile phase: hexane/isopropanol 95:5, flow rate=0.5 ml min^−1).

In test [3] the target is CytC (Equus caballus, UniProt P00004). Here is the method:
On the other hand CytC is inactivated by hydrogen peroxide, which can be followed by the disappearing Soret-peak (heme absorbance at k=408 nm).
In a typical experiment […] CytC is incubated at 30° C. in the presence of 1 mM hydrogen peroxide. At intervals of 2 min the UV-spectrum (between 300 and 650 nm) is recorded (FIG. 18).
In identical experiments, the absorbance at 408 nm was followed over time.

Test [4] addresses T1, monooxygenase component of styrene monooxygenase (StyA). The test can be described thus: [Cp*Rh(bpy)(H2O)]2+ driven, StyA-catalyzed epoxidation / sulfoxidation. It counts as biochemical. The conditions noted are these: substrate 4 mM, reaction time 15 min, 37 °C, 0.2 mM [Cp*Rh(bpy)(H2O)]2+, 1.47 μM StyA.

Like-named read-outs stand apart in the source and are kept apart here. Marks after values point to notes of the source that are not given here.

Sequence of CytC (P00004 whole entry): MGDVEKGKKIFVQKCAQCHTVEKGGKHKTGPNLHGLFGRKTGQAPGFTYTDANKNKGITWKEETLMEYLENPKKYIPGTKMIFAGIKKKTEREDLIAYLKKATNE

On to `C1=Cc2ccccc2CC1` [1,2-Dihydronaphthalene], for which, in test [1], the “ee-value of the epoxides” value is given as 98.9% and the Epoxides concentration was found to be 0.23 mM.
Regarding `C=Cc1cccc(Cl)c1` [3-Chloro-styrene], in test [1], the Epoxides concentration came out at 0.37 mM.
Consider `Cc1cccc(CCO)c1` [3-methylphenethylalcohol], for which, in test [2], the 3-methylphenethylalcohol produced entry is “about 0.015 mM”.
As to `C=Cc1ccc(Br)cc1` [4-Bromo styrene], the Epoxides concentration result in test [1] is “Positive^[c]”.
Same read-out and setting: with `C=Cc1ccc(Cl)cc1` [4-Chloro styrene] the entry was “Positive^[c]”; with `C=Cc1ccc(F)cc1` [4-Fluoro styrene], “Positive^[c]”.
On the same count and under the same terms, with `C=Cc1ccc(OC)cc1` [4-Methoxy styrene] the entry was “Positive^[c]”; with `C=Cc1ccc(C)cc1` [4-Methyl-styrene], 0.29 mM.
For the molecule `OO` [H2O2, hydrogen peroxide], the “CytC enzymatic activity after preincubation (sulfoxidation of thioanisol)” value in test [3] (CytC 15 μM, 1 mM hydrogen peroxide, 10 minutes) is “almost complete loss of enzymatic activity”. Also, the “dE (408 nm)/dt” value is -0.0116 min⁻¹ in test [3] ([CytC] 5 μM, [H2O2] 5 mM); -0.0231 min⁻¹ in test [3] ([CytC] 5 μM, [H2O2] 10 mM); -0.0399 min⁻¹ in test [3] ([CytC] 5 μM, [H2O2] 20 mM); -0.0281 min⁻¹ in test [3] ([CytC] 7.5 μM, [H2O2] 10 mM); -0.0234 min⁻¹ in test [3] ([CytC] 10 μM, [H2O2] 5 mM); -0.0330 min⁻¹ in test [3] ([CytC] 10 μM, [H2O2] 7.5 mM). For the same molecule, the “dE (408 nm)/dt” value in test [3] ([CytC] 10 μM, [H2O2] 10 mM) was -0.0438 min⁻¹; in test [3] ([CytC] 10 μM, [H2O2] 15 mM) it was -0.0637 min⁻¹; in test [3] ([CytC] 10 μM, [H2O2] 20 mM) it was -0.0821 min⁻¹.
For `C1=Cc2ccccc2C1` [Indene], in test [1], the “ee-value of the epoxides” value came out at 97.9% and the Epoxides concentration is 0.42 mM.
On to `CCSc1ccccc1` [Phenyl ethyl sulfide], for which the Epoxides concentration entry in test [1] was “Positive^[c]”.
With `C=Cc1ccccc1` [Styrene], in test [4] (20 μM FAD), the Epoxides concentration came to 0.33 mM. The “ee-value of the epoxides” value in test [4] ((S)) is <98 (S)^[a] %.
Take `CSc1ccccc1` [Thioanisole]: in test [1], the “ee-value of the epoxides” value was 23.3% and the Epoxides concentration is 0.33 (Methyl mM.
On the same counts, the results for `C/C=C/c1ccccc1` [Trans-β-Methylstyrene] are 97.6% and 0.28 mM.
